Measurements: US20060252807A1, “Novel ortho-terphenyl inhibitors of p38 kinase and methods of treating inflammatory disorders” (Kalypsys, Inc., priority 2005, published 2006)

Biological target: T1, active p38 alpha enzyme (Upstate Biotechnology) (Homo sapiens, UniProt Q16539)
T1 construct: purchased Upstate Biotechnology
Assay: p38α biochemical assay (ATP turnover, luminescent detection, Cambrex PKlight)
Conditions: p38α biochemical assay, Table 1 Biological Activity
In short: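 Active p38α phosphorylates MapkapK2 whole protein with 1.4 uM final ATP, 2 h at 30C, in Tris/MOPS buffer with MgCl2, CaCl2, EGTA, EDTA, glycerol, β-mercaptoethanol and 1 mg/ml BSA. Compounds pin-delivered from DMSO; total ATP turnover read by luminescence after PKlight addition.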

T1 sequence (Q16539 whole entry): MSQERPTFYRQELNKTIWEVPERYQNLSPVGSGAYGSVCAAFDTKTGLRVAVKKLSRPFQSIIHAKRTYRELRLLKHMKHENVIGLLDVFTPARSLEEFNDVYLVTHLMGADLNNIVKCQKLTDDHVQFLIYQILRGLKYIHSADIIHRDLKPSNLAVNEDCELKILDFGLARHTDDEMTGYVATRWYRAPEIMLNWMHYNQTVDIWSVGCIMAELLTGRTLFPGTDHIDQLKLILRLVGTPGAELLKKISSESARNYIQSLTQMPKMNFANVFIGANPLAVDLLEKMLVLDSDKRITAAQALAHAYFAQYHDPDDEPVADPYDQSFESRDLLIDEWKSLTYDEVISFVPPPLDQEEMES

SMILES	IC50 [µM]
COc1ccc(C(=O)N2CCN(Cc3nc(-c4ccc(F)cc4)c(-c4nc(C(=O)NC(C)C)cs4)o3)CC2)c(OC)c1OC [Example 523]	≤ 1
COc1cccc(O)c1C(=O)N1CCN(Cc2nc(-c3ccc(F)cc3)c(-c3nc(C(=O)NC(C)C)cs3)o2)CC1 [Example 423]	≤ 1
CCC(=O)C(=O)N1CCN(Cc2nc(-c3ccc(F)cc3)c(-c3nc(C(=O)NC(C)C)cs3)o2)CC1 [Example 339]	> 1
CC(C)NC(=O)c1csc(-c2oc(CN3CCN(C(=O)/C=C/c4ccccc4Cl)CC3)nc2-c2ccc(F)cc2)n1 [Example 468]	> 1
CC(C)NC(=O)c1csc(-c2oc(CNC(=O)c3ccccc3)nc2-c2ccc(F)cc2)n1 [Example 111]	> 1
CNC(=O)n1ccc(-c2c(-c3ccc(Cl)cc3)noc2C)n1 [Example 3, 3-|3-(4-Chloro-phenyl)-5-methyl-isoxazol-4-yl|-pyrazole-1-carboxylic acid methylamide]	> 1
CC(C)NC(=O)c1csc(-c2oc(CNC(=O)c3ccc(C=O)cc3)nc2-c2ccc(F)cc2)n1 [Example 133]	≤ 1
CC(C)NC(=O)c1csc(-c2c(-c3ccc(F)cc3)noc2CNC(=O)CCc2nc3ccccc3[nH]2)n1 [Example 725]	> 1
CC(C)NC(=O)c1csc(-c2c(-c3ccc(F)cc3)noc2CNC(=O)c2cc(Cl)ccn2)n1 [Example 630]	> 1
CC(C)NC(=O)c1csc(-c2oc(CNC(=O)C(F)(F)F)nc2-c2ccc(F)cc2)n1 [Example 108]	≤ 1
CC(C)NC(=O)c1csc(-c2c(-c3ccc(F)cc3)noc2CNC(=O)Cc2ccc3c(c2)OCO3)n1 [Example 692]	> 1
CC(C)NC(=O)c1csc(-c2c(-c3ccc(F)cc3)noc2CNC(=O)c2cc(Cl)ccc2[N+](=O)[O-])n1 [Example 750]	> 1
Cc1ccc(C(=O)NCc2nc(-c3ccc(F)cc3)c(-c3nc(C(=O)NC(C)C)cs3)o2)c(C)c1 [Example 134]	> 1
CCCCOc1ccc(C(=O)NCc2onc(-c3ccc(F)cc3)c2-c2nc(C(=O)NC(C)C)cs2)cc1 [Example 738]	> 1
Cc1ccc(SCC(=O)NCc2onc(-c3ccc(F)cc3)c2-c2nc(C(=O)NC(C)C)cs2)cc1 [Example 704]	> 1
Cc1nc(-c2ccc(F)cc2)c(-c2nc(C(=O)NCc3ccc4c(c3)OCO4)cs2)s1 [Example 59, 4′-(4-Fluoro-phenyl)-2′-methyl-|2,5′|bithiazolyl-4-carboxylic acid (benzo|1,3|dioxol-5-ylmethyl)-amide]	≤ 1
COc1cc(C(=O)N2CCN(Cc3nc(-c4ccc(F)cc4)c(-c4nc(C(=O)NC(C)C)cs4)o3)CC2)cc(OC)c1OC [Example 522]	> 1
CC(C)NC(=O)c1csc(-c2oc(CNC(=O)c3c4ccccc4cc4ccccc34)nc2-c2ccc(F)cc2)n1 [Example 303]	≤ 1
CC(C)NC(=O)c1csc(-c2oc(CN3CCN(C(=O)C(C)NC(=O)OC(C)(C)C)CC3)nc2-c2ccc(F)cc2)n1 (centres unmarked) [Example 484]	> 1
CC(C)NC(=O)c1csc(-c2c(-c3ccc(F)cc3)noc2CNC(=O)c2ccc(OC(C)C)cc2)n1 [Example 694]	> 1
Cc1c(C(=O)N2CCN(Cc3nc(-c4ccc(F)cc4)c(-c4nc(C(=O)NC(C)C)cs4)o3)CC2)oc2ccccc12 [Example 439]	> 1
CC(C)CC(=O)N1CCN(Cc2nc(-c3ccc(F)cc3)c(-c3nc(C(=O)NC(C)C)cs3)o2)CC1 [Example 341]	> 1
COc1ccc(/C=C/C(=O)NCc2onc(-c3ccc(F)cc3)c2-c2nc(C(=O)NC(C)C)cs2)cc1O [Example 737]	> 1
COc1ccc(C(=O)NCc2nc(-c3ccc(F)cc3)c(-c3nc(C(=O)NC(C)C)cs3)o2)c(O)c1 [Example 188]	> 1
CC(C)NC(=O)c1csc(-c2oc(CN3CCN(C(=O)c4ccc(C(C)(C)C)cc4)CC3)nc2-c2ccc(F)cc2)n1 [Example 446]	> 1
CC(CC(=O)N1CCN(Cc2nc(-c3ccc(F)cc3)c(-c3nc(C(=O)NC(C)C)cs3)o2)CC1)CC(C)(C)C (centres unmarked) [Example 399]	≤ 1

Same assay, conditions: p38α kinase; Table 1 Biological Activity

SMILES	IC50 [µM]
Cc1nc(-c2ccc(F)cc2)c(-c2nc(C(=O)N(C)C(Cc3ccccc3)c3ccccc3)cs2)s1 (centres unmarked) [Example 1939]	> 1
CCOC(=O)C1CCCN(Cc2nc(-c3ccc(F)cc3)c(-c3nc(C(=O)NC(C)C)cs3)o2)C1 (centres unmarked) [Example 1238]	> 1
CCCC(C)NCc1onc(-c2ccc(F)cc2)c1-c1nc(C(=O)NC(C)C)cs1 (centres unmarked) [Example 1398]	> 1
CC(C)NC(=O)c1csc(-c2c(-c3ccc(F)cc3)n[nH]c2C2CCN(C(=O)c3cc(F)c(F)cc3[N+](=O)[O-])CC2)n1 [Example 992]	> 1
CCc1cccc(C)c1NCc1nc(-c2ccc(F)cc2)c(-c2nc(C(=O)NC(C)C)cs2)o1 [Example 1337]	> 1
CC(C)NC(=O)C1=CSC(c2c(-c3ccc(F)cc3)noc2CN2CCN(c3ccc(F)cc3)CC2)=NC1 [Example 1580]	> 1
CC(C)NC(=O)c1csc(-c2c(-c3ccc(F)cc3)noc2CN2CCN(CC3CCCCC3)CC2)n1 [Example 1581]	> 1
Cc1nc(-c2ccc(F)cc2)c(-c2nc(C(=O)NC3CCN(Cc4ccccc4)C3)cs2)s1 (centres unmarked) [Example 1822]	≤ 1
CC(C)NC(=O)c1csc(-c2c(-c3ccc(F)cc3)noc2CNCCCc2ccccc2)n1 [Example 1450]	> 1
CC(C)NC(=O)c1csc(-c2c(-c3ccc(F)cc3)n[nH]c2C2CCN(C(=O)c3cc4cc(Cl)ccc4o3)CC2)n1 [Example 978]	> 1
CC(C)NC(=O)c1csc(-c2oc(CN(C)CCc3ccccc3)nc2-c2ccc(F)cc2)n1 [Example 1227]	> 1
CCCCOc1ccc(C(=O)N2CCC(c3[nH]nc(-c4ccc(F)cc4)c3-c3nc(C(=O)NC(C)C)cs3)CC2)cc1 [Example 977]	≤ 1
COc1ccc(OC)c(C(=O)N2CCC(c3[nH]nc(-c4ccc(F)cc4)c3-c3nc(C(=O)NC(C)C)cs3)CC2)c1 [Example 938]	> 1
CC(C)NC(=O)c1csc(-c2c(-c3ccc(F)cc3)noc2CN(Cc2ccccc2)C(C)C)n1 [Example 1558]	> 1
Cc1nc(-c2ccc(F)cc2)c(-c2nc(C(=O)N3CCN(Cc4ccc5c(c4)OCO5)CC3)cs2)s1 [Example 1945]	> 1
Cc1cccc(C(C)(C)C)c1NCc1nc(-c2ccc(F)cc2)c(-c2nc(C(=O)NC(C)C)cs2)o1 [Example 1358]	> 1
CCN(Cc1ccccc1)C(=O)c1csc(-c2sc(C)nc2-c2ccc(F)cc2)n1 [Example 1875]	> 1
CC(C)NC(=O)c1csc(-c2c(-c3ccc(F)cc3)noc2CN2CCN(c3ccc(C#N)cn3)CC2)n1 [Example 1587]	> 1
Cc1nc(-c2ccc(F)cc2)c(-c2nc(C(=O)N(C)Cc3cccc4ccccc34)cs2)s1 [Example 1934]	> 1
CC(C)C(CO)NC(=O)c1csc(-c2c(-c3ccc(F)cc3)n[nH]c2C2CCNCC2)n1 (centres unmarked) [Example 2061]	≤ 1
CCN(C)Cc1onc(-c2ccc(F)cc2)c1-c1nc(C(=O)NC(C)C)cs1 [Example 1511]	> 1

SMILES	IC50 [µM]
CC(C)NC(=O)c1csc(-c2c(-c3ccc(F)cc3)noc2CN2CCCC3CCCCC32)n1 (centres unmarked) [Example 1555]	> 1
CC1CCN(Cc2onc(-c3ccc(F)cc3)c2-c2nc(C(=O)NC(C)C)cs2)CC1 [Example 1523]	> 1
CC(C)NC(=O)c1csc(-c2c(-c3ccc(F)cc3)noc2CNCCNC(=O)OC(C)(C)C)n1 [Example 1484]	> 1
COc1cccc(CCNCc2onc(-c3ccc(F)cc3)c2-c2nc(C(=O)NC(C)C)cs2)c1 [Example 1473]	> 1
CC(C)NC(=O)c1csc(-c2c(-c3ccc(F)cc3)noc2CN2CCN(CCN3CCOCC3)CC2)n1 [Example 1604]	> 1
Cc1cnc(CNCc2onc(-c3ccc(F)cc3)c2-c2nc(C(=O)NC(C)C)cs2)cn1 [Example 1433]	> 1
Cc1nc(-c2ccc(F)cc2)c(-c2nc(C(=O)N(C)Cc3ccccc3)cs2)s1 [Example 1867]	> 1
CC(C)NC(=O)c1csc(-c2c(-c3ccc(F)cc3)n[nH]c2C2CCN(C(=O)c3cccc(Cl)c3[N+](=O)[O-])CC2)n1 [Example 984]	> 1
CC(C)NC(=O)c1csc(-c2c(-c3ccc(F)cc3)noc2CNCCN2CCCC2)n1 [Example 1424]	≤ 1
COc1ccc(C(=O)N2CCC(c3[nH]nc(-c4ccc(F)cc4)c3-c3nc(C(=O)NC(C)C)cs3)CC2)c(O)c1 [Example 902]	> 1
CC(C)NC(=O)c1csc(-c2oc(CNc3cc(Cl)c(Cl)c(Cl)c3)nc2-c2ccc(F)cc2)n1 [Example 1367]	> 1
CC(C)NC(=O)c1csc(-c2oc(CNCCCn3ccnc3)nc2-c2ccc(F)cc2)n1 [Example 1106]	> 1
COc1ccc(NC(=O)c2csc(-c3sc(C)nc3-c3ccc(F)cc3)n2)cc1 [Example 1973]	> 1
CNCc1onc(-c2ccc(F)cc2)c1-c1nc(C(=O)NC(C)C)cs1 [Example 1382]	> 1
Cc1nc(-c2ccc(F)cc2)c(-c2nc(C(=O)Nc3ccccc3-c3ccccc3)cs2)s1 [Example 2010]	≤ 1
CC(C)NC(=O)c1csc(-c2oc(CN(C)C3CCCCC3)nc2-c2ccc(F)cc2)n1 [Example 1207]	> 1
COc1ccccc1/C=C/C(=O)N1CCC(c2[nH]nc(-c3ccc(F)cc3)c2-c2nc(C(=O)NC(C)C)cs2)CC1 [Example 919]	> 1
CC(C)NC(=O)c1csc(-c2c(-c3ccc(F)cc3)noc2CNN2CCN(C)CC2)n1 [Example 1425]	> 1
CC(C)NC(=O)c1csc(-c2oc(CN3CCCCC3C)nc2-c2ccc(F)cc2)n1 (centres unmarked) [Example 1197]	> 1
CCc1ccccc1NCc1onc(-c2ccc(F)cc2)c1-c1nc(C(=O)NC(C)C)cs1 [Example 1642]	> 1
CC(C)NC(=O)c1csc(-c2c(-c3ccc(F)cc3)n[nH]c2C2CCN(C(=O)C(Cc3ccc(O)cc3)NC(=O)OC(C)(C)C)CC2)n1 (centres unmarked) [Example 1048]	> 1
